Assay results taken from publication PMC7822874, “Chemoprotective antimalarials identified through quantitative high-throughput screening of Plasmodium blood and liver stage parasites” (Scientific Reports, 2021).

What follows are compounds tested on Plasmodium falciparum Dd2 asexual blood stage parasites (assay: microbe, parasite or virus in culture). Conditions: Plasmodium falciparum, DD2, Erythrocyte, 72 h; read-out: AC50.
Set-up: species or system Plasmodium falciparum Dd2 in human erythrocytes; single determination (one 11-point concentration-response curve)
With CCOc1ccc(NC(=O)c2cnn3c2NC(c2cccc(OC)c2)=CC3c2ccccc2)cc1 (stereo not drawn) [NCGC00121753-01] the AC50 was 4.73 µM.
COc1cccc(-c2cc(C(=O)Nc3cc(Cl)ccc3O)on2)c1 [NCGC00121773-01] showed an AC50 of 4.73 µM.
COc1ccc(-c2cn3c(n2)sc2cc(C(=O)NCCCN4CCCCC4)ccc23)cc1 [NCGC00121823-01] showed an AC50 of 4.73 µM.
Work on CCCN1CCN(CCCNC(=O)c2ccc3c(c2)sc2nc(-c4ccc(OC)cc4)cn23)CC1 [NCGC00121829-01] yielded an AC50 of 4.73 µM.
COc1ccc2c(CNCc3ccccc3OC)c(C(=O)O)n(Cc3ccc(F)cc3Cl)c2c1 [NCGC00122363-01] gave an AC50 of 15 µM.
With COc1ccc(-c2nc3c(c(SCc4ccc(Br)cc4)n2)Cc2c(CO)cnc(C)c2O3)cc1 [NCGC00122580-01] the AC50 was 0.0668 µM.
With CCCCn1cc([S+](=O)([O-])c2ccc(Cl)cc2)c(=O)c2cc(F)c(N3CCCCC3)cc21 [NCGC00123723-01] the AC50 was 15 µM.
CC(NC(=O)Cn1c(-c2cccs2)cc2cc(F)ccc21)c1ccccc1 (stereo not drawn) [NCGC00123911-01] gave an AC50 of 2.66 µM.
COc1ccc(Nc2cc(C)c3cc(NC(=O)c4cc(OC)cc(OC)c4)ccc3n2)cc1 [NCGC00124306-01] showed an AC50 of 0.75 µM.
COc1ccc(Nc2cc(C)c3cc(NC(=O)Cc4c(F)cccc4Cl)ccc3n2)cc1 [NCGC00124312-01] gave an AC50 of 5.31 µM.
With Cc1cc(Nc2cccc(C(F)(F)F)c2)nc2ccc(NC(=O)c3cncc(Br)c3)cc12 [NCGC00124348-01] the AC50 was 2.37 µM.
In the case of CCOc1cc(C(=O)Nc2ccc3nc(Nc4cccc(Cl)c4)cc(C)c3c2)cc(OCC)c1OCC [NCGC00124408-01], the AC50 is reported as 1.88 µM.
CCN1CCN(C(=O)c2c(C)nn(-c3ccc(F)cc3)c2-n2cccc2)CC1 [NCGC00125054-01] gave an AC50 of 9.44 µM.
CCc1c(C)c2ccc3c(c2oc1=O)CN(Cc1ccccc1)CO3 [NCGC00125086-01] was tested, and the AC50 was 2.11 µM.
In the case of Cc1c(Cl)cccc1Nc1nn2c(=O)c3ccc(C(=O)NCCc4ccccc4)cc3nc2s1 [NCGC00125565-01], the AC50 is reported as 7.5 µM.
Cc1c(Cl)cccc1Nc1nn2c(=O)c3ccc(C(=O)N(C)Cc4ccccc4)cc3nc2s1 [NCGC00125571-01] was tested, and the AC50 was 16.8 µM.
CC1=C(C(=O)Nc2ccccc2)C(c2cc(Br)ccc2F)n2ncc(C(=O)Nc3ccccc3)c2N1 (stereo not drawn) [NCGC00126266-01] showed an AC50 of 1.68 µM.
In the case of Cc1ccccc1NC(=O)Nc1ccc2nc(N3CCN(C)CC3)cc(C)c2c1 [NCGC00126513-01], the AC50 is reported as 1.5 µM.
In the case of COc1ccccc1N1CCN(CCCNC(=O)c2cnn(-c3ccccc3Cl)c2C2CCN(C(=O)OC(C)(C)C)CC2)CC1 [NCGC00126752-01], the AC50 is reported as 2.37 µM.
COc1ccccc1CN1CCC(CNC(=O)c2cnn(-c3ccc(Cl)cc3)c2C2CCN(C(=O)OC(C)(C)C)CC2)CC1 [NCGC00126796-01] gave an AC50 of 2.66 µM.
Compound CCOC(=O)c1c(C)oc2nc(C)nc(Nc3ccc(CC)cc3)c12 [NCGC00126813-01] has an AC50 of 7.5 µM.
COc1ccccc1CN1CCC(CNC(=O)c2cnn(-c3cccc(Cl)c3)c2C2CCN(C(=O)OC(C)(C)C)CC2)CC1 [NCGC00126858-01] gave an AC50 of 7.5 µM.
In the case of COc1ccccc1N1CCN(CCCNC(=O)c2cnn(-c3cccc(Cl)c3)c2C2CCN(C(=O)OC(C)(C)C)CC2)CC1 [NCGC00126882-01], the AC50 is reported as 2.11 µM.
Cc1ccc(CN2CCC(CNC(=O)c3cnn(-c4ccc(C)cc4)c3C3CCN(C(=O)OC(C)(C)C)CC3)CC2)cc1 [NCGC00126945-01] was tested, and the AC50 was 8.41 µM.
Cc1ccc(-n2ncc(C(=O)N3CCN(c4cc(Cl)ccc4C)CC3)c2C2CCN(C(=O)OC(C)(C)C)CC2)cc1 [NCGC00126953-01] gave an AC50 of 8.41 µM.
Work on Fc1ccc(N2CCN(Cc3cccn3-c3nnc(N4CCN(C5CCCCC5)CC4)s3)CC2)cc1 [NCGC00127052-01] yielded an AC50 of 11.9 µM.
Cc1cccc(C)c1-n1ncc(C(=O)NCCCN2CCC(C)CC2)c1C1CCN(C(=O)OC(C)(C)C)CC1 [NCGC00127064-01] showed an AC50 of 15 µM.
Work on CC(C)(C)OC(=O)N1CCC(c2c(C(=O)NCCN3CCc4ccccc4C3)cnn2-c2ccc(F)cc2F)CC1 [NCGC00127087-01] yielded an AC50 of 5.31 µM.
Cc1cc(C)c(CN2C(=O)c3ccccc3[S+](=O)([O-])c3ccc(C(=O)OCC4CCCO4)cc32)c(C)c1 (stereo not drawn) [NCGC00127808-01] gave an AC50 of 6.68 µM.
COc1cc(NC(=O)CSc2nc(-c3ccccc3)no2)cc(OC)c1 [NCGC00127876-01] gave an AC50 of 2.37 µM.
O=C(CSc1nc(-c2ccccc2)no1)N1CCN(c2ccc(F)cc2)CC1 [NCGC00127880-01] gave an AC50 of 4.22 µM.
COc1ccccc1N1CCN(C(=O)CSc2nc(-c3ccc(C(C)C)cc3)no2)CC1 [NCGC00127900-01] showed an AC50 of 0.376 µM.
Compound CCN(C(=O)CSc1nc(-c2ccc(C(C)C)cc2)no1)c1cccc(C)c1 [NCGC00127902-01] has an AC50 of 1.06 µM.
In the case of CCN(C(=O)CSc1nc(-c2ccc(C(C)C)cc2)no1)c1ccccc1 [NCGC00127904-01], the AC50 is reported as 0.944 µM.
In the case of CC1CCN(C(=O)CSc2nc(-c3ccc(C(C)C)cc3)no2)CC1 [NCGC00127906-01], the AC50 is reported as 1.19 µM.
COc1cc(NC(=O)CSc2nc(-c3ccc(C(C)C)cc3)no2)cc(OC)c1 [NCGC00127914-01] gave an AC50 of 0.841 µM.
CC(C)c1ccc(-c2noc(SCC(=O)N(C)c3ccc(F)cc3)n2)cc1 [NCGC00127932-01] gave an AC50 of 0.944 µM.
CC(C)c1ccc(-c2noc(SCC(=O)N3CCN(c4ccc(F)cc4)CC3)n2)cc1 [NCGC00127934-01] showed an AC50 of 0.668 µM.
In the case of COc1ccc(N2CCN(C(=O)CSc3nc(-c4ccc(C(C)C)cc4)no3)CC2)cc1 [NCGC00127936-01], the AC50 is reported as 0.531 µM.
CCc1cccc(-n2c(=O)c3cccnc3n2CC(=O)Nc2ccc(F)c(C)c2)c1 [NCGC00128424-01] was tested, and the AC50 was 2.66 µM.
CCc1cccc(NC(c2nnc(-c3ccccc3)o2)c2ccc(F)cc2Cl)c1 (stereo not drawn) [NCGC00129460-01] showed an AC50 of 6.68 µM.
With COCCc1nn2c(=O)cc(COC(=O)C(c3ccccc3)c3ccccc3)nc2s1 [NCGC00129785-01] the AC50 was 2.66 µM.
Cc1oc(-c2ccc(Cl)cc2)nc1Cn1c(=O)cc(-c2ccccc2)c2c(C)nn(C)c21 [NCGC00130157-01] gave an AC50 of 9.44 µM.
For CCc1ccc(-c2nn(CC(=O)NC3CCCCC3)c3c2cnc2ccc(OC)cc23)cc1 [NCGC00130391-01], the AC50 was 9.44 µM.
Compound CCCc1nn2c(=O)cc(COC(=O)c3cccc(NC(=O)COc4ccccc4C)c3)nc2s1 [NCGC00130805-01] has an AC50 of 13.3 µM.
With CCOC(=O)c1ccc2c(c1)N(CC(=O)N(C)c1ccccc1)C(=O)c1ccccc1S2 [NCGC00132027-01] the AC50 was 10.6 µM.
In the case of CCOC(=O)c1ccc2c(c1)N(C(CC)C(=O)Nc1ccccc1OC)C(=O)c1ccccc1S2 (stereo not drawn) [NCGC00132065-01], the AC50 is reported as 9.44 µM.
In the case of Cc1ccc(C)c(N2CCN(C(=O)c3cc([S+](=O)([O-])N4CCCCCC4)cn3C)CC2)c1 [NCGC00132413-01], the AC50 is reported as 10.6 µM.
Compound Cc1cc(C)c(/C=C/c2onc(C)c2[S+](=O)([O-])N2CCC(C(=O)Nc3ccc(Cl)c(C(F)(F)F)c3)CC2)c(C)c1 [NCGC00132732-01] has an AC50 of 10.6 µM.
For COc1ccccc1Cc1nc2ccccc2nc1SCC(=O)NCc1ccccc1Cl [NCGC00133705-01], the AC50 was 2.11 µM.
With COc1cccc(-c2nn3c(=O)cc(CN4CCN([S+](=O)([O-])c5ccc(C)cc5)CC4)nc3s2)c1 [NCGC00134088-01] the AC50 was 8.41 µM.
In the case of COc1ccc(-c2cc3ccc(O)c(CN4CCCC(C)C4)c3oc2=O)cc1 (stereo not drawn) [NCGC00134281-01], the AC50 is reported as 2.37 µM.
CCOc1cc(C(=O)N2CCc3c([nH]c4ccccc34)C2c2ccccc2)cc(OCC)c1OCC (stereo not drawn) [NCGC00134525-01] showed an AC50 of 7.5 µM.
Work on CCOC(=O)c1[nH]c(C)c(CCC(=O)N2CCN(c3cc(C)ccc3C)CC2)c1C [NCGC00134586-01] yielded an AC50 of 1.33 µM.
Compound CCOc1cccc(C2c3[nH]c4ccccc4c3CCN2C(=O)CSCc2ccc(F)cc2)c1 (stereo not drawn) [NCGC00134633-01] has an AC50 of 15 µM.
O=c1oc2c(CN3CCOCC3)c(O)ccc2cc1-c1ccccc1 [NCGC00135757-01] gave an AC50 of 9.44 µM.
COc1ccc2nc(N(Cc3cccnc3)C(=O)CCc3ccccc3)sc2c1 [NCGC00136611-01] was tested, and the AC50 was 6.68 µM.
COc1ccc(-c2nc3sc(CCNC(=O)c4ccc(C(C)(C)C)cc4)c(C)n3n2)cc1 [NCGC00137079-01] showed an AC50 of 2.11 µM.
Compound CC(=O)C1=C(c2ccccc2)N(C(C)=O)n2c(nnc2C2CCCCC2)S1 [NCGC00137174-01] has an AC50 of 4.22 µM.
Compound CC(=O)C1=C(c2ccc(Cl)cc2)N(C(C)=O)n2c(nnc2C2CCCCC2)S1 [NCGC00137192-01] has an AC50 of 4.73 µM.
For CC(=O)C1=C(c2ccc(Br)cc2)N(C(C)=O)n2c(nnc2C2CCCCC2)S1 [NCGC00137196-01], the AC50 was 2.99 µM.
Work on CCC(=O)C1=C(c2ccccc2)N(C(=O)CC)n2c(nnc2-c2ccccc2)S1 [NCGC00137198-01] yielded an AC50 of 5.96 µM.
Work on CCC(=O)C1=C(c2ccc(OC)c(OC)c2)N(C(=O)CC)n2c(CC)nnc2S1 [NCGC00137256-01] yielded an AC50 of 4.73 µM.
In the case of COc1ccc(C2=C(C(C)=O)Sc3nnc(-c4ccc(Cl)cc4)n3N2C(C)=O)cc1OC [NCGC00137262-01], the AC50 is reported as 3.76 µM.
Work on CCC(=O)C1=C(c2cccc([N+](=O)[O-])c2)N(C(=O)CC)n2c(nnc2C2CCCCC2)S1 [NCGC00137266-01] yielded an AC50 of 1.88 µM.
For CCC(=O)C1=C(c2cccc([N+](=O)[O-])c2)N(C(=O)CC)n2c(nnc2-c2ccccc2)S1 [NCGC00137270-01], the AC50 was 5.31 µM.
Compound COc1cccc(C2=C(C(C)=O)Sc3nnc(C4CCCCC4)n3N2C(C)=O)c1 [NCGC00137294-01] has an AC50 of 4.73 µM.
O=[N+]([O-])c1ccc([S+](=O)([O-])N2CCn3cccc3C2c2ccc(Br)cc2)cc1 (stereo not drawn) [NCGC00137374-01] gave an AC50 of 5.96 µM.
CCOC(=O)c1cnn(-c2ccc(C(=O)Nc3ccc(C(C)=O)cc3)cc2)c1N [NCGC00137680-01] was tested, and the AC50 was 4.73 µM.
COC(=O)c1cnn(-c2ccc(C(=O)Nc3ccc(OC(F)(F)F)cc3)cc2)c1N [NCGC00137710-01] gave an AC50 of 4.73 µM.
With Cc1cccc(C(=O)N2CCc3cc(CNC(=O)c4ccc(Br)o4)ccc32)c1 [NCGC00137781-01] the AC50 was 9.44 µM.
CCOc1cccc(CC(=O)Nc2ccc3nc(N4CCCCC4)cc(C)c3c2)c1OCC [NCGC00137846-01] was tested, and the AC50 was 6.68 µM.
With CCOC(=O)c1c(C)[nH]c(C)c1[S+](=O)([O-])N1CCCC(C(=O)N2CCN(c3cccc(C)c3C)CC2)C1 (stereo not drawn) [NCGC00138103-01] the AC50 was 1.33 µM.
In the case of CCOC(=O)c1c([S+](=O)([O-])N2CCCC(C(=O)N3CCN(c4cc(C)ccc4C)CC3)C2)c(C)n(C)c1C (stereo not drawn) [NCGC00138145-01], the AC50 is reported as 1.5 µM.
O=C(NCCC1=CCCCC1)c1ccc2c(=O)n3nc(Nc4ccccc4)sc3nc2c1 [NCGC00138829-01] was tested, and the AC50 was 4.73 µM.
